Results from patent US9492471B2, “Methods of treating a disease or disorder associated with Bruton'S Tyrosine Kinase” (Celgene Avilomics Research, Inc., priority 2013, dated 2016).
Like-named read-outs stand apart in the source and are kept apart here.

Experiments:
Assay in all cases: HotSpot kinase profiling
Type in all cases: biochemical
LYN = target: T1, LYN (Homo sapiens, UniProt P07948)
T1 construct: purchased Reaction Biology Corp
Method in brief: (§1)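 P81 filtration radiometric readout; 2 h incubation at room temperature; 0.1% phosphoric acid wash; DMSO negative control; % inhibition, mean of replicate runs.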

EPHB1 = target: T2, EPHB1 (Homo sapiens, UniProt P54762)
T2 construct: purchased Reaction Biology Corp
T2 sequence (P54762 18-984): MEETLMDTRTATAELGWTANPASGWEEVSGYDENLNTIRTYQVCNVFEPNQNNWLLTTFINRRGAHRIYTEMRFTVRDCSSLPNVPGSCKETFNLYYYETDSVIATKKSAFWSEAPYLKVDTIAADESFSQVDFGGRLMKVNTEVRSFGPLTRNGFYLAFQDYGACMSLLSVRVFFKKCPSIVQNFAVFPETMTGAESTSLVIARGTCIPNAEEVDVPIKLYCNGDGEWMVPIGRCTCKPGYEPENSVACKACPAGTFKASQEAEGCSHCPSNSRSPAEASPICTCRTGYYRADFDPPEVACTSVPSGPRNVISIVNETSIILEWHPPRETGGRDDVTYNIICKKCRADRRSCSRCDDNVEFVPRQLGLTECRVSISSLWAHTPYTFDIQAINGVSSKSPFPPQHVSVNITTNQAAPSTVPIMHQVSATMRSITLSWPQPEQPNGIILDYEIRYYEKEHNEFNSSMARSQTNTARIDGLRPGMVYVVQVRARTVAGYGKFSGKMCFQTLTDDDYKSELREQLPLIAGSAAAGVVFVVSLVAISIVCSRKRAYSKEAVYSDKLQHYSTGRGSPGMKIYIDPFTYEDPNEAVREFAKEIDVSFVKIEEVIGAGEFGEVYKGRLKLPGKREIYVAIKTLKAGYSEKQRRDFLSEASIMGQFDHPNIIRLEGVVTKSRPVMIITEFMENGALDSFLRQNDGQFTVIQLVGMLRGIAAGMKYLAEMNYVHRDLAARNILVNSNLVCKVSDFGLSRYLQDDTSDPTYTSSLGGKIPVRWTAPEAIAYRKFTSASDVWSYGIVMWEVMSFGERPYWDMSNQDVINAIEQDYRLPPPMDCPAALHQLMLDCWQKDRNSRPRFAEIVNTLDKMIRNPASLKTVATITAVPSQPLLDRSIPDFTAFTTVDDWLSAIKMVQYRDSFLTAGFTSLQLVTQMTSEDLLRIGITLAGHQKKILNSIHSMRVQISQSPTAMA
Method in brief: as §1

NEK11 = target: T3, NEK11 (Homo sapiens, UniProt Q8NG66)
T3 construct: purchased Reaction Biology Corp
T3 sequence (Q8NG66 1-645): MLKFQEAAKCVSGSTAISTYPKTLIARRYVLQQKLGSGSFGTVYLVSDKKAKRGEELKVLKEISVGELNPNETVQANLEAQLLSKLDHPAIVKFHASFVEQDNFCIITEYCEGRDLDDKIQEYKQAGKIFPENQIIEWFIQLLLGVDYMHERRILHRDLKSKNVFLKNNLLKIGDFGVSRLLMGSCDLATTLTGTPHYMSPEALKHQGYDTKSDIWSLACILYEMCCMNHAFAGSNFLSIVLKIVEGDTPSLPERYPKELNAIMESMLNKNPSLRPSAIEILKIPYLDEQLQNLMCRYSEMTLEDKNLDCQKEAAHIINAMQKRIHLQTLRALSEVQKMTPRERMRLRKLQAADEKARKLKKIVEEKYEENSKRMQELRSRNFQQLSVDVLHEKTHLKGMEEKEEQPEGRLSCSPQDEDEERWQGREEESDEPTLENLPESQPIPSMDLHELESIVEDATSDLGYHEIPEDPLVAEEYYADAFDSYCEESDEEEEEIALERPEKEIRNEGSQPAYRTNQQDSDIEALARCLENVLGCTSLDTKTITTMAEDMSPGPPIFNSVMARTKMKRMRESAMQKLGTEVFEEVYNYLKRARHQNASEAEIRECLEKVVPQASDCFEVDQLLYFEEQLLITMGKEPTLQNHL
Method in brief: as §1

[1] = read-out: % Enzyme Activity (relative to DMSO controls) Run 1
[2] = read-out: % Enzyme Activity (relative to DMSO controls) Run 2

T1 sequence (P07948 whole entry): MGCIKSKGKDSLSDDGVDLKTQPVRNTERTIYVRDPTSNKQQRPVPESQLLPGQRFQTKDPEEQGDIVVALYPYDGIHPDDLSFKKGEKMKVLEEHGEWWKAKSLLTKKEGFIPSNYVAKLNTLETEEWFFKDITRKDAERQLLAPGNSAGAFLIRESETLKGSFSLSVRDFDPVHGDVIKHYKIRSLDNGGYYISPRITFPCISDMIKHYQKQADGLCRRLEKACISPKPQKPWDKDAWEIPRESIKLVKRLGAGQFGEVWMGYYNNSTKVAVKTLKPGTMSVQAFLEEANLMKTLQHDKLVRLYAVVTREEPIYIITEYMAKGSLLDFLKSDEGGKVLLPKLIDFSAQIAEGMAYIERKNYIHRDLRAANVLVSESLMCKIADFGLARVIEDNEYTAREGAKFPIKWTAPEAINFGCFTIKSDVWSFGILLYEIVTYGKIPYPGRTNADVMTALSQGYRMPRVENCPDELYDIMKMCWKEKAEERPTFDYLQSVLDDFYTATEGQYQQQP

Compound: C=CC(=O)Nc1cccc(Nc2nc(Nc3ccc(OCCOC)c(F)c3)ncc2F)c1 [Compound 2]
- inhibition at 3 µM (LYN): 27.5%
- remaining activity at 3 µM (LYN; [1]): 71.7%
- remaining activity at 3 µM (LYN; [2]): 73.2%
- inhibition at 3 µM (EPHB1): 20.4%
- remaining activity at 3 µM (EPHB1; [1]): 79.5%
- remaining activity at 3 µM (EPHB1; [2]): 79.7%
- inhibition at 3 µM (NEK11): 7.32%
- remaining activity at 3 µM (NEK11; [1]): 92.5%
- remaining activity at 3 µM (NEK11; [2]): 92.8%
